Experimental findings from patent US12403128B2, “Compositions and methods for blocking sodium channels” (University of Virginia Patent Foundation, priority 2017, dated 2025) are described below.

A word on the inhibition: it is the relative decrease from the control value, in per cent. In general, IC50 refers to the concentration that inhibits the measured activity by half.

The target in this assay is Nav1.6 (Homo sapiens, UniProt Q9UQD0). Put plainly: % block of Nav1.6 at 100 μM and IC50 (NaV1.6). It is filed as cell-based. The settings on record: for inhibition at 100 µM: 100 μM compound; for IC50: NaV1.6, Table 2, MV1060-MV1091, unit inferred, read-out: IC50. The protocol:
Evaluation of Compounds for % Block of Nav1.6 at 100 μM
Compounds of the present invention were tested in an assay for % block of Nav1.6 at a concentration of 100 μM compound. Table 1 also indicates the melting point ranges for some compounds.
Some such compounds correspond to a compound of Formula III, wherein R9 is substituted with a halogen, a nitro or a CF3 group. In comparing MV1089, MV1090 and MV1091, it is shown that compounds of Formula III where R3 is H result in higher % block than when R3 is substituted. e.g., by OCH3. In comparing MV1066, MV1084, MV1085, MV1086, MV1087 and MV1088, it is shown that compounds of Formula III where R9 is halogen, a nitro or a CF3 group result in higher % block than when R9 is OCH3, COOH or CH3.

Counter-ions that a name gives are not always drawn.

Nav1.6, sequence (Q9UQD0 whole entry): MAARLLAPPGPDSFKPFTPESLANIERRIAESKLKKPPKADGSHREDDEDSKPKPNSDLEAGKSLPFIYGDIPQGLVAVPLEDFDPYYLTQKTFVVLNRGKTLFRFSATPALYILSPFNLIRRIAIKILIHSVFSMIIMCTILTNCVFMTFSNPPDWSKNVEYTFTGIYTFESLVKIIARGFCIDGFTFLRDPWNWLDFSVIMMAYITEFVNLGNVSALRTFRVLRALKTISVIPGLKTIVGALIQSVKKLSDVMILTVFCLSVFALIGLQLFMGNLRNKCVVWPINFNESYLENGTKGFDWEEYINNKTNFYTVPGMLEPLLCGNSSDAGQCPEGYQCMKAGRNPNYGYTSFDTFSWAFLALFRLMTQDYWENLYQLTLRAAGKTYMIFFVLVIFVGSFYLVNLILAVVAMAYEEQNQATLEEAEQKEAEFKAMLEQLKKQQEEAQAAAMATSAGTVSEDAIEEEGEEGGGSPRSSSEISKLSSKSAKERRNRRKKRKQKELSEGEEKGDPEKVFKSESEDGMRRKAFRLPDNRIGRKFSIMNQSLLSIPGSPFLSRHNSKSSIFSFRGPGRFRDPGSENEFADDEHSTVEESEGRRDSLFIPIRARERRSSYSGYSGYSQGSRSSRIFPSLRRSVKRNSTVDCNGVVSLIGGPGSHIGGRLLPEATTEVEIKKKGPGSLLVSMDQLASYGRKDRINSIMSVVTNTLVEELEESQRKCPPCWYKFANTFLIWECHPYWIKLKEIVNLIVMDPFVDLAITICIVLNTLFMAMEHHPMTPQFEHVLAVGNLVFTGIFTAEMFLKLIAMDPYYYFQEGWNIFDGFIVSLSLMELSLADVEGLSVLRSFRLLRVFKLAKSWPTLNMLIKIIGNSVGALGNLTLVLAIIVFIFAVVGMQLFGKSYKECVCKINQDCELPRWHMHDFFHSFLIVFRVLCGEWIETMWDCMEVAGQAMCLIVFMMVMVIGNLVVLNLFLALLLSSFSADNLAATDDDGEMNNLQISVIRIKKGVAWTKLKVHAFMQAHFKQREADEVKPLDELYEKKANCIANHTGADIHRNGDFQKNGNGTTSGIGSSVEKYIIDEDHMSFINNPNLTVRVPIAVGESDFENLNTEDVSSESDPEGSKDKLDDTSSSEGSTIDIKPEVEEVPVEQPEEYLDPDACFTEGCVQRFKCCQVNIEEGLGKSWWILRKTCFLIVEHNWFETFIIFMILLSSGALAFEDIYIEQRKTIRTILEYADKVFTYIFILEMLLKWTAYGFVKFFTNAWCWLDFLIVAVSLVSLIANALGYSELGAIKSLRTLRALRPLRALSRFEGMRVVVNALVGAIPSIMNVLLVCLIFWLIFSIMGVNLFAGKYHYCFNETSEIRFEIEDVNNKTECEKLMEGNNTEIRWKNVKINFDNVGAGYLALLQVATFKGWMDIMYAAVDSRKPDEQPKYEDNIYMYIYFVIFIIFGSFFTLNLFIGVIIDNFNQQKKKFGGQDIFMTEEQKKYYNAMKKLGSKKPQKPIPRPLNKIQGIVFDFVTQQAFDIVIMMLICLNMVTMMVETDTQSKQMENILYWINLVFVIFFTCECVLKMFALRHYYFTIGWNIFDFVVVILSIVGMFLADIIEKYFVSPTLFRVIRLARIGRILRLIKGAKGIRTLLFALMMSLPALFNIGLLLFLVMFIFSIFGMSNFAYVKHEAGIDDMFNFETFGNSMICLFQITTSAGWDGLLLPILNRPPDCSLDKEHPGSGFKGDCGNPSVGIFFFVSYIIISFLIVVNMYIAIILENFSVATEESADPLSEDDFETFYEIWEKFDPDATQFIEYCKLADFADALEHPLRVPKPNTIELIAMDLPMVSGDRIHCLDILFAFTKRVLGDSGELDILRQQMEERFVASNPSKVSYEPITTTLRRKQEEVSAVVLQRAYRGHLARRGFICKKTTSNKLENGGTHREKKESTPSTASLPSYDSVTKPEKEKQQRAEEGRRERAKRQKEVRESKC

In turn, `COc1ccccc1-c1nc(C)c(C)[nH]1` [MV1364, 2-(2-METHOXY-PHENYL)-4,5-DIMETHYL-1H-IMIDAZOLE OXALATE] gave an inhibition at 100 µM of 70%.

For the compound `O=C(O)c1ccccc1-c1nc2ccccc2[nH]1` [MV1078, 2-(1H-1,3-benzodiazol-2-yl)benzoic acid], 100 µM produced 5% inhibition and the IC50 was > 100 µM.

`CCCc1nc(-c2ccc(OC)cc2)[nH]c1C` [MV1368, 2-(4-METHOXY-PHENYL)-5-METHYL-4-PROPYL-1H-IMIDAZOLE OXALATE] had an inhibition at 100 µM of 85%.

For the compound `COc1ccc(-c2nc(-c3ccc(NC(=O)c4ccc(Cl)cc4)cc3)c[nH]2)cc1` [MV1306, 4-CHLORO-N-(4-[2-(4-METHOXY-PHENYL)-1H-IMIDAZOL-4-YL]-PHENYL)-BENZAMIDE HYDROCHLORIDE], the inhibition at 100 µM was 10%.

`COc1ccc(-c2ncc(C)[nH]2)cc1` [MV1356, 2-(4-METHOXY-PHENYL)-5-METHYL-1H-IMIDAZOLE OXALATE] registered an inhibition at 100 µM of 65%.

As to `COc1ccc(-c2nc(C)c(C)[nH]2)cc1` [MV1362, 2-(4-METHOXY-PHENYL)-4,5-DIMETHYL-1H-IMIDAZOLE OXALATE], the inhibition at 100 µM came out at 85%.

In turn, `COc1ccc(-c2nc(-c3ccc(NC(=O)c4ccccc4)cc3)c[nH]2)cc1` [MV1302, N-(4-[2-(4-METHOXY-PHENYL-1H-IMIDAZOL-4-YL]-PHENYL)-BENZAMIDE HYDROCHLORIDE] displayed an inhibition at 100 µM of 20%.

Turning to `Clc1ccccc1-c1nc2ccccc2[nH]1` [MV1068, 2-(2-chlorophenyl)-1H-1,3-benzodiazole], testing at 100 µM gave an inhibition of 75% and the IC50 was 41.6 µM.

In turn, `CCCc1nc(-c2ccccc2OC)[nH]c1C` [MV1370, 2-(2-METHOXY-PHENYL)-5-METHYL-4-PROPYL-1H-IMIDAZOLE OXALATE] returned an inhibition at 100 µM of 90%.

In the case of `CCCc1nc(-c2cccc(Cl)c2)[nH]c1C` [MV1372, 2-(3-CHLORO-PHENYL)-5-METHYL-4-PROPYL-1H-IMIDAZOLE OXALATE], the inhibition at 100 µM was found to be 100%.

Regarding `COc1ccccc1-c1ncc(C)[nH]1` [MV1358, 2-(2-METHOXY-PHENYL)-5-METHYL-1H-IMIDAZOLE OXALATE], testing at 100 µM gave an inhibition of 50%.

`COc1cccc(-c2ncc[nH]2)c1` [MV1351, 2-(3-METHOXY-PHENYL)-1H-IMIDAZOLE OXALATE] registered an inhibition at 100 µM of 25%.

`COc1ccc(C(=O)Nc2cccc(-c3c[nH]c(-c4ccccc4)n3)c2)cc1` [MV1309, 4-METHOXY-N-[3-[2-PHENYL-1H-IMIDAZOL-4-YL]-PHENYL]-BENZAMIDE HYDROCHLORIDE] registered an inhibition at 100 µM of 75%.

On to `Cc1ccc(-c2nc3ccccc3[nH]2)cc1` [MV1083, 2-(4-methylphenyl)-1H-1,3-benzodiazole], for which at 100 µM the inhibition was 30% and the IC50 is > 100 µM.

Compound `O=C(Nc1cccc(-c2c[nH]c(-c3ccccc3)n2)c1)c1ccc(Cl)cc1` [MV1311, 4-CHLORO-N-[3-(2-PHENYL-1H-IMIDAZOL-4-YL)-PHENYL]-BENZAMIDE HYDROCHLORIDE] came in with an inhibition at 100 µM of 90%.

For `COc1ccc(-c2ncc[nH]2)cc1` [MV1350, 2-(4-METHOXY-PHENYL)-1H-IMIDAZOLE OXALATE], the inhibition at 100 µM turned out to be 25%.

Take `O=[N+]([O-])c1ccc2nc(-c3ccccc3)[nH]c2c1` [MV1084, 6-nitro-2-phenyl-1H-1,3-benzodiazole]: testing at 100 µM gave an inhibition of 70%.

For the compound `c1ccc(-c2nc3ccccc3[nH]2)cc1` [MV1060, 2-Phenyl-benzimidazole], 100 µM produced 30% inhibition and the IC50 was > 100 µM.

`Cc1nc(-c2cccc(Cl)c2)[nH]c1C` [MV1366, 2-(3-CHLORO-PHENYL)-4,5-DIMETHYL-1H-IMIDAZOLE OXALATE] came in with an inhibition at 100 µM of 95%.

Regarding `COc1ccc2nc(-c3ccccc3)[nH]c2c1` [MV1085, 6-methoxy-2-phenyl-1H-1,3-benzodiazole], the inhibition at 100 µM came to 35% and the IC50 is > 100 µM.

`CCCc1nc(-c2cccc(OC)c2)[nH]c1C` [MV1369, 2-(3-METHOXY-PHENYL)-5-METHYL-4-PROPYL-1H-IMIDAZOLE OXALATE] returned an inhibition at 100 µM of 100%.

For `O=C(O)c1cccc(-c2nc3ccccc3[nH]2)c1` [MV1079, 3-(1H-1,3-benzodiazol-2-yl)benzoic acid], at 100 µM the inhibition was 15% and the IC50 was > 100 µM.

On to `Cc1nc(-c2ccccc2Cl)[nH]c1C` [MV1367, 2-(2-CHLORO-PHENYL)-4,5-DIMETHYL-1H-IMIDAZOLE OXALATE], for which the inhibition at 100 µM stood at 45%.

As to `O=C(Nc1ccc(-c2c[nH]c(-c3ccccc3)n2)cc1)c1ccc(Cl)cc1` [MV1305, 4-CHLORO-N-[4-(2-PHENYL-1H-IMIDAZOL-4-YL)-PHENYL]-BENZAMIDE HYDROCHLORIDE], the inhibition at 100 µM is 50%.

Compound `COc1ccc(-c2nc(-c3cccc(NC(=O)c4ccc(Cl)cc4)c3)c[nH]2)cc1` [MV1312, 4-CHLORO-N-(3-[2-(4-METHOXY-PHENYL)-1H-IMIDAZOL-4-YL]-PHENYL)-BENZAMIDE HYDROCHLORIDE] came in with an inhibition at 100 µM of 85%.

As to `COc1cccc(-c2nc(C)c(C)[nH]2)c1` [MV1363, 2-(3-METHOXY-PHENYL)-4,5-DIMETHYL-1H-IMIDAZOLE OXALATE], the inhibition at 100 µM turned out to be 80%.

On to `COc1ccc(-c2nc3cc(Cl)ccc3[nH]2)cc1` [MV1091, 6-chloro-2-(4-methoxyphenyl)-1H-1,3-benzodiazole], for which the inhibition at 100 µM was 0% and the IC50 was > 100 µM.

For the compound `O=[N+]([O-])c1ccc(-c2nc3ccccc3[nH]2)cc1` [MV1072, 2-(4-nitrophenyl)-1H-1,3-benzodiazole], 100 µM produced 20% inhibition and the IC50 was > 100 µM.

Consider `Cc1cccc(-c2nc3ccccc3[nH]2)c1` [MV1082, 2-(3-methylphenyl)-1H-1,3-benzodiazole], for which at 100 µM the inhibition was 65%.

Take `COc1ccccc1-c1nc2cc(Cl)ccc2[nH]1` [MV1089, 6-chloro-2-(2-methoxyphenyl]-1H-1,3-benzodiazole]: 100 µM produced 90% inhibition and the half-maximal inhibitory concentration (IC50) turned out to be 40.1 µM.

In the case of `Clc1ccc(-c2ncc[nH]2)cc1` [MV1353, 2-(4-CHLORO-PHENYL)-1H-IMIDAZOLE OXALATE], at 100 µM the inhibition was 30%.

The compound `Clc1cccc(-c2ncc[nH]2)c1` [MV1354, 2-(3-CHLORO-PHENYL)-1H-IMIDAZOLE OXALATE] gave an inhibition at 100 µM of 20%.

In turn, `Cc1nc(-c2ccc(Cl)cc2)[nH]c1C` [MV1365, 2-(4-CHLORO-PHENYL)-4,5-DIMETHYL-1H-IMIDAZOLE OXALATE] displayed an inhibition at 100 µM of 85%.

Take `Clc1ccc(-c2nc3ccccc3[nH]2)cc1` [MV1061, 2-(4-chlorophenyl)-1H-1,3-benzodiazole]: testing at 100 µM gave an inhibition of 45%.

`Cc1cnc(-c2cccc(Cl)c2)[nH]1` [MV1360, 2-(3-CHLORO-PHENYL)-5-METHYL-1H-IMIDAZOLE OXALATE] showed an inhibition at 100 µM of 70%.

Regarding `O=[N+]([O-])c1ccccc1-c1nc2ccccc2[nH]1` [MV1070, 2-(2-nitrophenyl)-1H-1,3-benzodiazole], the inhibition at 100 µM came out at 20% and the IC50 was > 100 µM.

Turning to `COc1ccccc1-c1ncc[nH]1` [MV1352, 2-(2-METHOXY-PHENYL)-1H-IMIDAZOLE OXALATE], the inhibition at 100 µM was found to be 30%.

On to `Clc1ccccc1-c1ncc[nH]1` [MV1355, 2-(2-CHLORO-PHENYL)-1H-IMIDAZOLE OXALATE], for which the inhibition at 100 µM is 0%.

For `O=C(O)c1ccc(-c2nc3ccccc3[nH]2)cc1` [MV1080, 4-(1H-1,3-benzodiazol-2-yl)benzoic acid], the inhibition at 100 µM was found to be 10% and the IC50 is > 100 µM.

In turn, `Cc1cnc(-c2ccccc2Cl)[nH]1` [MV1361, 2-(2-CHLORO-PHENYL)-5-METHYL-1H-IMIDAZOLE OXALATE] returned an inhibition at 100 µM of 0%.

Regarding `Cc1ccc2nc(-c3ccccc3)[nH]c2c1` [MV1088, 6-methyl-2-phenyl-1H-1,3-benzodiazole], the inhibition at 100 µM is 55%.

Regarding `COc1cccc(-c2nc3cc(Cl)ccc3[nH]2)c1` [MV1090, 6-chloro-2-(3-methoxyphenyl)-1H-1,3-benzodiazole], the inhibition at 100 µM worked out at 85% and the IC50 is 29.6 µM.

`Clc1cccc(-c2nc3ccccc3[nH]2)c1` [MV1069, 2-(3-chlorophenyl)-1H-1,3-benzodiazole]: the inhibition at 100 µM is 65% and the IC50 is 37 µM.

`O=C(O)c1ccc2nc(-c3ccccc3)[nH]c2c1` [MV1087, 2-phenyl-1H-1,3-benzodiazole-6-carboxylic acid]: at 100 µM the inhibition was 0% and the IC50 is > 100 µM.

With `FC(F)(F)c1ccc2nc(-c3ccccc3)[nH]c2c1` [MV1086, 6-trifluoromethyl-2-phenyl-1H-1,3-benzodiazole], at 100 µM the inhibition was 90% and the IC50 worked out at 24.7 µM.

Consider `COc1cccc(-c2nc3ccccc3[nH]2)c1` [MV1074, 2-(3-methoxyphenyl)-1H-1,3-benzodiazole], for which the inhibition at 100 µM was determined as 40% and the IC50 was > 100 µM.

For the compound `Cc1ccccc1-c1nc2ccccc2[nH]1` [MV1081, 2-(2-methylphenyl)-1H-1,3-benzodiazole], the inhibition at 100 µM turned out to be 25% and the IC50 is > 100 µM.

`COc1cccc(-c2ncc(C)[nH]2)c1` [MV1357, 2-(3-METHOXY PHENYL)-5-METHYL-1H-IMIDAZOLE OXALATE] came in with an inhibition at 100 µM of 90%.

`Cc1cnc(-c2ccc(Cl)cc2)[nH]1` [MV1359, 2-(4-CHLORO-PHENYL)-5-METHYL-1H-IMIDAZOLE OXALATE] gave an inhibition at 100 µM of 75%.
